Values quoted from earlier work, collected in patent US20080200434A1, “Chemical Target-Binding Compositions” (priority 2006, published 2008).

Key:
[1] = chronic exposure (Hubbard, S. A. 1998)
[2] = aqueous association with glucose; Lorand and Edwards 1959

Row | Structure (SMILES) | no observed adverse effect level [1] | Kd [2] [mM]
1 | OB(O)O [boric acid] | 9-43 mg boron/kg/day | 
2 | OB(O)c1ccccc1 [phenylboronic acid] |  | 9.1
